Laboratory results: patent US20260132132A1, “3A,4,5,6-TETRAHYDRO-1 H-PYRAZOLO[3,4-C]PYRIDIN-7(7AH)-ONE DERIVATIVES AS FACTOR XIIA INHIBITORS” (KALVISTA PHARMACEUTICALS LIMITED, priority 2022, published 2026)

Legend:
FXa = FXa (Homo sapiens, UniProt P00742); assay: Related protease inhibition: FXa, fluorogenic substrate; type: biochemical; conditions: fluorogenic substrate at Km, 25° C.; H1-H3 = % activity at 40 μM
Description: Human serine protease enzyme Plasma Kallikrein, KLK1, FXa, Plasmin, Thrombin and Trypsin were assayed for enzymatic activity using an appropriate fluorogenic substrate at Km concentration, FXIa at fixed substrate concentration of 100 μM and various concentrations of the test compound.

[1] = molecular target: T1, Human Factor XIIa (hFXIIa) (Homo sapiens, UniProt P00748); assay: Determination of Human Factor XIIa (hFXIIa) inhibition, fluorogenic substrate IC50 assay; type: biochemical; conditions: fluorogenic substrate H-DPro-Phe-Arg-AFC at Km, 25° C., read-out: Human FXIIa IC50
T1 construct: purchased Enzyme Research Laboratories
T1 sequence (P00748 373-615 limits assumed): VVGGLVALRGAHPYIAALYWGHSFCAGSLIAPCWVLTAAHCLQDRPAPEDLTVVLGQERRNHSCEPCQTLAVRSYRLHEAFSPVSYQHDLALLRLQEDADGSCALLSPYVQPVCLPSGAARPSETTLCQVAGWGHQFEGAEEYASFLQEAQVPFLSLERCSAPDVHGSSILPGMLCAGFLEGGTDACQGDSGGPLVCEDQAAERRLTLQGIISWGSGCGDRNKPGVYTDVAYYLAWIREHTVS
T1 sequence (P00748 20-372 partner limits assumed): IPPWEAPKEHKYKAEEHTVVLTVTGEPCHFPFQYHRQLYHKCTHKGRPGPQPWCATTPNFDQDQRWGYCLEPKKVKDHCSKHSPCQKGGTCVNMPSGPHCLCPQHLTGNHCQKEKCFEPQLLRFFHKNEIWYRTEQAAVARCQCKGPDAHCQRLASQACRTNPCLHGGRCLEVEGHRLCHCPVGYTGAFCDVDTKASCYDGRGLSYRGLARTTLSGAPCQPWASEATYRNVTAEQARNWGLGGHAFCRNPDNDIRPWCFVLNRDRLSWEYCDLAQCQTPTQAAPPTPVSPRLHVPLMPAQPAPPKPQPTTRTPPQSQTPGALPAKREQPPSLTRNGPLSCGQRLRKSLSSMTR
Description: Determination of Human Factor XIIa (hFXIIa) inhibition
The Km for the cleavage of the substrate by hFXIIa was determined by standard transformation of the Michaelis-Menten equation, with subsequent inhibition assays performed at substrate Km concentration.

Sequence of FXa (P00742 235-488 limits assumed): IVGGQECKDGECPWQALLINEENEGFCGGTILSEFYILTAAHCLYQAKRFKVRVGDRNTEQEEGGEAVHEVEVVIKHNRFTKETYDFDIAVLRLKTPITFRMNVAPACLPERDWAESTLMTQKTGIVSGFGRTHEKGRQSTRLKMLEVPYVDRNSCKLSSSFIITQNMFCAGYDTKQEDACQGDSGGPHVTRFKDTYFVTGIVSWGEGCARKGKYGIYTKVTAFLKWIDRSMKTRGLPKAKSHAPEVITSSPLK
Sequence of FXa (P00742 41-179 partner limits assumed): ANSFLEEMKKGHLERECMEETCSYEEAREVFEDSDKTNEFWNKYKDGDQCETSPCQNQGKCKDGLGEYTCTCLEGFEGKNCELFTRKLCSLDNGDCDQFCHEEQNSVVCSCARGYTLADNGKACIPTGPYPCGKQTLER

Row | Structure (SMILES) | IC50 (FXa) | IC50 [1]
1 | O=C(NCc1ccccc1)c1nn(-c2cccc(Cl)c2)c2c1CCN(c1cccc(CN3CCCCC3)c1)C2=O [Example 1001, N-Benzyl-1-(3-chlorophenyl)-7-oxo-6-(3-(piperidin-1-ylmethyl)phenyl)-4,5,6,7-tetrahydro-1H-pyrazolo[3,4-c]pyridine-3-carboxamide] | > 40000 nM | 100 to 300 nM
2 | O=C(NCC1CC1)c1nn(-c2cccc(Cl)c2)c2c1CCN(c1cccc(CN3CCCCC3)c1)C2=O [Example 1002, 1-(3-chlorophenyl)-N-(cyclopropylmethyl)-7-oxo-6-(3-(piperidin-1-ylmethyl)phenyl)-4,5,6,7-tetrahydro-1H-pyrazolo[3,4-c]pyridine-3-carboxamide] | > 10000 nM | 300 to 1000 nM
3 | O=C(NCc1cccnc1)c1nn(-c2cccc(Cl)c2)c2c1CCN(c1cccc(CN3CCCCC3)c1)C2=O [Example 1003, 1-(3-chlorophenyl)-7-oxo-6-(3-(piperidin-1-ylmethyl)phenyl)-N-(pyridin-3-ylmethyl)-4,5,6,7-tetrahydro-1H-pyrazolo[3,4-c]pyridine-3-carboxamide] | > 100000 nM | 300 to 1000 nM
4 | CN(Cc1ccccc1)C(=O)c1nn(-c2cccc(Cl)c2)c2c1CCN(c1cccc(CN3CCCCC3)c1)C2=O [Example 1004, N-benzyl-1-(3-chlorophenyl)-N-methyl-7-oxo-6-(3-(piperidin-1-ylmethyl)phenyl)-4,5,6,7-tetrahydro-1H-pyrazolo[3,4-c]pyridine-3-carboxamide] | > 40000 nM | 1000 to 3000 nM
5 | CN1CCc2ccc(N3CCc4c(C(=O)NCc5ccccc5)nn(-c5cccc(Cl)c5)c4C3=O)cc2C1 [Example 1005, N-benzyl-1-(3-chlorophenyl)-6-(2-methyl-1,2,3,4-tetrahydroisoquinolin-7-yl)-7-oxo-4,5,6,7-tetrahydro-1H-pyrazolo[3,4-c]pyridine-3-carboxamide] | 3000 to 10000 nM | 10 to 100 nM
6 | O=C(OCc1ccccc1)c1nn(-c2cccc(Cl)c2)c2c1CCN(c1cccc(CN3CCCCC3)c1)C2=O [Example 1006, benzyl 1-(3-chlorophenyl)-7-oxo-6-(3-(piperidin-1-ylmethyl)phenyl)-4,5,6,7-tetrahydro-1H-pyrazolo[3,4-c]pyridine-3-carboxylate] | 10000 to 40000 nM | 300 to 1000 nM
7 | CCOC(=O)c1nn(-c2cccc(Cl)c2)c2c1CCN(c1cccc(CN3CCCCC3)c1)C2=O [Example 1007, ethyl 1-(3-chlorophenyl)-7-oxo-6-(3-(piperidin-1-ylmethyl)phenyl)-4,5,6,7-tetrahydro-1H-pyrazolo[3,4-c]pyridine-3-carboxylate] | 10000 to 40000 nM | 100 to 300 nM
8 | O=C(N[C@H](CO)c1ccccc1)c1nn(-c2cccc(Cl)c2)c2c1CCN(c1cccc(CN3CCCCC3)c1)C2=O [Example 1008, (S)-1-(3-chlorophenyl)-N-(2-hydroxy-1-phenylethyl)-7-oxo-6-(3-(piperidin-1-ylmethyl)phenyl)-4,5,6,7-tetrahydro-1H-pyrazolo[3,4-c]pyridine-3-carboxamide] | > 100000 nM | 300 to 1000 nM
9 | O=C(c1nn(-c2cccc(Cl)c2)c2c1CCN(c1cccc(CN3CCCCC3)c1)C2=O)N1CCCC1 [Example 1009, 1-(3-chlorophenyl)-6-(3-(piperidin-1-ylmethyl)phenyl)-3-(pyrrolidine-1-carbonyl)-1,4,5,6-tetrahydro-7H-pyrazolo[3,4-c]pyridin-7-one] | > 100000 nM | 3000 to 10000 nM
10 | O=C(NC1CCCCC1)c1nn(-c2cccc(Cl)c2)c2c1CCN(c1cccc(CN3CCCCC3)c1)C2=O [Example 1010, 1-(3-chlorophenyl)-N-cyclohexyl-7-oxo-6-(3-(piperidin-1-ylmethyl)phenyl)-4,5,6,7-tetrahydro-1H-pyrazolo[3,4-c]pyridine-3-carboxamide] | > 100000 nM | 300 to 1000 nM
11 | CCNC(=O)c1nn(-c2cccc(Cl)c2)c2c1CCN(c1cccc(CN3CCCCC3)c1)C2=O [Example 1011, 1-(3-chlorophenyl)-N-ethyl-7-oxo-6-(3-(piperidin-1-ylmethyl)phenyl)-4,5,6,7-tetrahydro-1H-pyrazolo[3,4-c]pyridine-3-carboxamide] | > 100000 nM | 3000 to 10000 nM
12 | CN1CCc2ccc(N3CCc4c(C(=O)NCC5CC5)nn(-c5cccc(Cl)c5)c4C3=O)cc2C1 [Example 1012, 1-(3-chlorophenyl)-N-(cyclopropylmethyl)-6-(2-methyl-1,2,3,4-tetrahydroisoquinolin-7-yl)-7-oxo-4,5,6,7-tetrahydro-1H-pyrazolo[3,4-c]pyridine-3-carboxamide] | 10000 to 40000 nM | 300 to 1000 nM
13 | CCOC(=O)c1nn(-c2cccc(Cl)c2)c2c1CCN(c1ccc3c(c1)CN(C)CC3)C2=O [Example 1013, ethyl 1-(3-chlorophenyl)-6-(2-methyl-1,2,3,4-tetrahydroisoquinolin-7-yl)-7-oxo-4,5,6,7-tetrahydro-1H-pyrazolo[3,4-c]pyridine-3-carboxylate] | 300 to 1000 nM | 100 to 300 nM
14 | CCNC(=O)c1nn(-c2cccc(Cl)c2)c2c1CCN(c1ccc3c(c1)CN(C)CC3)C2=O [Example 1014, 1-(3-chlorophenyl)-N-ethyl-6-(2-methyl-1,2,3,4-tetrahydroisoquinolin-7-yl)-7-oxo-4,5,6,7-tetrahydro-1H-pyrazolo[3,4-c]pyridine-3-carboxamide] | 10000 to 40000 nM | 300 to 1000 nM
15 | CN1CCc2ccc(N3CCc4c(C(=O)NCc5cccnc5)nn(-c5cccc(Cl)c5)c4C3=O)cc2C1 [Example 1015, 1-(3-chlorophenyl)-6-(2-methyl-1,2,3,4-tetrahydroisoquinolin-7-yl)-7-oxo-N-(pyridin-3-ylmethyl)-4,5,6,7-tetrahydro-1H-pyrazolo[3,4-c]pyridine-3-carboxamide] | 10000 to 40000 nM | 100 to 300 nM
16 | O=C(NCc1ccccc1)c1nn(-c2cccc(Cl)c2)c2c1CCN(c1ccc3c(c1)CN(CC1CC1)CC3)C2=O [Example 1019, N-benzyl-1-(3-chlorophenyl)-6-(2-(cyclopropylmethyl)-1,2,3,4-tetrahydroisoquinolin-7-yl)-7-oxo-4,5,6,7-tetrahydro-1H-pyrazolo[3,4-c]pyridine-3-carboxamide] | > 40000 nM | 100 to 300 nM
17 | CCN1CCc2ccc(N3CCc4c(C(=O)NCc5ccccc5)nn(-c5cccc(Cl)c5)c4C3=O)cc2C1 [Example 1021, N-benzyl-1-(3-chlorophenyl)-6-(2-ethyl-1,2,3,4-tetrahydroisoquinolin-7-yl)-7-oxo-4,5,6,7-tetrahydro-1H-pyrazolo[3,4-c]pyridine-3-carboxamide] | 3000 to 10000 nM | 10 to 100 nM
18 | CC(C)N1CCc2ccc(N3CCc4c(C(=O)NCc5ccccc5)nn(-c5cccc(Cl)c5)c4C3=O)cc2C1 [Example 1022, N-benzyl-1-(3-chlorophenyl)-6-(2-isopropyl-1,2,3,4-tetrahydroisoquinolin-7-yl)-7-oxo-4,5,6,7-tetrahydro-1H-pyrazolo[3,4-c]pyridine-3-carboxamide] | 3000 to 10000 nM | 10 to 100 nM
19 | CN1CCc2ccc(N3CCc4c(C(=O)NCC5CCCCC5)nn(-c5cccc(Cl)c5)c4C3=O)cc2C1 [Example 1023, 1-(3-chlorophenyl)-N-(cyclohexylmethyl)-6-(2-methyl-1,2,3,4-tetrahydroisoquinolin-7-yl)-7-oxo-4,5,6,7-tetrahydro-1H-pyrazolo[3,4-c]pyridine-3-carboxamide] | 3000 to 10000 nM | 100 to 300 nM
20 | CN1CCc2ccc(N3CCc4c(C(=O)NCC5CCCO5)nn(-c5cccc(Cl)c5)c4C3=O)cc2C1 (stereo not shown) [Example 1025, 1-(3-chlorophenyl)-6-(2-methyl-1,2,3,4-tetrahydroisoquinolin-7-yl)-7-oxo-N-((tetrahydrofuran-2-yl)methyl)-4,5,6,7-tetrahydro-1H-pyrazolo[3,4-c]pyridine-3-carboxamide] | 3000 to 10000 nM | 300 to 1000 nM
21 | CN1CCc2ccc(N3CCc4c(C(=O)NCC5CCOC5)nn(-c5cccc(Cl)c5)c4C3=O)cc2C1 (stereo not shown) [Example 1026, 1-(3-chlorophenyl)-6-(2-methyl-1,2,3,4-tetrahydroisoquinolin-7-yl)-7-oxo-N-((tetrahydrofuran-3-yl)methyl)-4,5,6,7-tetrahydro-1H-pyrazolo[3,4-c]pyridine-3-carboxamide] | 10000 to 40000 nM | 300 to 1000 nM
22 | O=C(Cn1nc(-c2cccc(Cl)c2)c2c1CCN(c1ccc3c(c1)CN(CCO)CC3)C2=O)NC1CC1 [Example 4004, 2-(3-(3-chlorophenyl)-5-(2-(2-hydroxyethyl)-1,2,3,4-tetrahydroisoquinolin-7-yl)-4-oxo-4,5,6,7-tetrahydro-1H-pyrazolo[4,3-c]pyridin-1-yl)-N-cyclopropylacetamide] |  | 1000 to 3000 nM
